From US12559529B2, “NPY2 receptor agonists” (Boehringer Ingelheim International GmbH, priority 2019, dated 2026)
pKi: −log10 of the molar value. *1 amine or outer side, *2 acyl side, *3 side chain or, on linkers, in order; H or OH if unused. Where a SMILES comes first, the peptide text is derived from it. Side-chain parts run from the residue outwards. The star is where a group is joined. C18 diacid = O=C(O)CCCCCCCCCCCCCCCCC(=O)*; γGlu = O=C(O)[C@H](CCC(=O)[*:2])N[*:1]; Isovaleryl = CC(C)CC(=O)*; AEEA = NCCOCCOCC(=O)O

Each compound was assayed against T1, Human Neuropeptide Y2 Receptor (Homo sapiens, UniProt P49146) (assay: Radioligand binding competition assay (RLB)). Conditions: Table 3; human 125I-PYY (1-36) 0.02 nM, Y2 receptor membranes; read-out: Ki.
T1 construct: purchased CHEMICON HTS066M
T1 sequence (P49146 1-381): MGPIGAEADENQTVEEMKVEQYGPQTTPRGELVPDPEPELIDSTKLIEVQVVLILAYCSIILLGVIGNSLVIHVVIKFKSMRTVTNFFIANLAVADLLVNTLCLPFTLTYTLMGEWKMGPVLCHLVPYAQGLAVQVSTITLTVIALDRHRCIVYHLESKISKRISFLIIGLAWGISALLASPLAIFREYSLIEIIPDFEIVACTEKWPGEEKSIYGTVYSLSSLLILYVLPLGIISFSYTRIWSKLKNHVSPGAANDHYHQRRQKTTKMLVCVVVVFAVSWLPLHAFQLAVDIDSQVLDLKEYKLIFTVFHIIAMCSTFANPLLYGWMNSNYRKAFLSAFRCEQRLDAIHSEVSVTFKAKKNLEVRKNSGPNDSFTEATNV
Outline: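 Competition binding at commercial human NPY Y2 membrane preparations, 0.5 μg protein per well, 2 h incubation at room temperature. Bound and free ligand were separated on GF/C filters and counted; IC50 was fitted by nonlinear regression.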

pKi | Compound
8.81 | CC[C@H](C)[C@H](NC(=O)[C@H](CCC(=O)O)NC(=O)[C@H](CCC(=O)O)NC(=O)[C@@H]1CCCN1C(=O)[C@H](CO)NC(=O)[C@H](CO)NC(=O)[C@H](CC(=O)O)NC(=O)[C@H](CCC(=O)O)NC(=O)[C@H](CCC(=O)O)NC(=O)[C@@H]1CCCN1C(=O)[C@H](CCCCNC(=O)COCCOCCNC(=O)COCCOCCNC(=O)CC[C@H](NC(=O)CCCCCCCCCCCCCCCCC(=O)O)C(=O)O)NC(=O)[C@H](CCC(=O)O)NC(=O)[C@@H]1CCCN1C(=O)[C@H](C)NC(=O)CC(C)C)C(=O)N[C@@H](CCC(N)=O)C(=O)N[C@@H](CCCNC(=N)N)C(=O)N[C@@H](Cc1ccc(O)cc1)C(=O)N[C@@H](Cc1ccc(O)cc1)C(=O)N[C@H](C(=O)N[C@@H](CO)C(=O)N[C@@H](CC(C)C)C(=O)N[C@@H](CCCNC(=N)N)C(=O)N[C@@H](Cc1c[nH]cn1)C(=O)N[C@@H](Cc1ccc(O)cc1)C(=O)N[C@@H](Cc1ccc(O)cc1)C(=O)N[C@@H](CC(N)=O)C(=O)N[C@@H](Cc1c[nH]c2ccccc12)C(=O)N[C@@H](CC(C)C)C(=O)N[C@H](C(=O)N[C@@H](CCCNC(=N)N)C(=O)N[C@@H](CCC(N)=O)C(=O)N[C@@H](CCCNC(=N)N)C(=O)N[C@@H](Cc1ccc(O)cc1)C(N)=O)[C@@H](C)O)C(C)C [Compound 145, N{alpha-4}-(3-methylbutanoyl)-N{epsilon-7}-[2-(2-{2-[2-(2-{2-[(4S)-4-carboxy-4-(17-carboxyheptadecanamido)butanamido]ethoxy}ethoxy)acetamido]ethoxy}ethoxy)acetamido]-[4A,7K,9E,12S,17I,18Q,22V,28Y,30W,31L]hPYY (4-36)]
8.30 | CC(C)CC(=O)N[C@@H](C)C(=O)N1CCC[C@H]1C(=O)N[C@@H](CCC(=O)O)C(=O)N[C@@H](CCCCNC(=O)COCCOCCNC(=O)COCCOCCNC(=O)CC[C@H](NC(=O)CCCCCCCCCCCCCCCCC(=O)O)C(=O)O)C(=O)N1CCC[C@H]1C(=O)N[C@@H](CCC(=O)O)C(=O)N[C@@H](CCC(=O)O)C(=O)N[C@@H](CCC(=O)O)C(=O)N[C@@H](C)C(=O)N[C@@H](CO)C(=O)N1CCC[C@H]1C(=O)N[C@@H](CCC(=O)O)C(=O)N[C@@H](CCC(=O)O)C(=O)N[C@@H](CC(C)C)C(=O)N[C@@H](CCC(N)=O)C(=O)N[C@@H](CCCNC(=N)N)C(=O)N[C@@H](Cc1ccc(O)cc1)C(=O)N[C@@H](Cc1ccc(O)cc1)C(=O)N[C@H](C(=O)N[C@@H](CO)C(=O)N[C@H](C(=O)N[C@@H](CCCNC(=N)N)C(=O)N[C@@H](Cc1c[nH]cn1)C(=O)N[C@@H](Cc1ccc(O)cc1)C(=O)N[C@@H](Cc1ccc(O)cc1)C(=O)N[C@@H](CC(N)=O)C(=O)N[C@@H](Cc1c[nH]c2ccccc12)C(=O)N[C@@H](CC(C)C)C(=O)N[C@H](C(=O)N[C@@H](CCCNC(=N)N)C(=O)N[C@@H](CCC(N)=O)C(=O)N[C@@H](CCCNC(=N)N)C(=O)N[C@@H](Cc1ccc(O)cc1)C(N)=O)[C@@H](C)O)[C@@H](C)O)C(C)C [Compound 146, N{alpha-4}-(3-methylbutanoyl)-N{epsilon-7}-[2-(2-{2-[2-(2-{2-[(4S)-4-carboxy-4-(17-carboxyheptadecanamido)butanamido]ethoxy}ethoxy)acetamido]ethoxy}ethoxy)acetamido]-[4A,7K,9E,11E,18Q,22V,24T,28Y,30W,31L]hPYY (4-36)] (Isovaleryl-APEK([AEEA-AEEA-γGlu-C18 diacid])PEEEASPEELQRYYVSTRHYYNWLTRQRY-NH2)
8.92 | CC(C)CC(=O)N[C@@H](C)C(=O)N1CCC[C@H]1C(=O)N[C@@H](CCC(=O)O)C(=O)N[C@@H](CCCCNC(=O)COCCOCCNC(=O)COCCOCCNC(=O)CC[C@H](NC(=O)CCCCCCCCCCCCCCCCC(=O)O)C(=O)O)C(=O)N1CCC[C@H]1C(=O)N[C@@H](CCC(=O)O)C(=O)N[C@@H](CCC(=O)O)C(=O)N[C@@H](CC(=O)O)C(=O)N[C@@H](C)C(=O)N[C@@H](CO)C(=O)N1CCC[C@H]1C(=O)N[C@@H](CCC(=O)O)C(=O)N[C@@H](CCC(=O)O)C(=O)N[C@H](C(=O)N[C@@H](CCC(N)=O)C(=O)N[C@@H](CCCCN)C(=O)N[C@@H](Cc1ccc(O)cc1)C(=O)N[C@@H](Cc1ccc(O)cc1)C(=O)N[C@H](C(=O)N[C@@H](CO)C(=O)N[C@@H](CC(C)C)C(=O)N[C@@H](CCCNC(=N)N)C(=O)N[C@@H](Cc1c[nH]cn1)C(=O)N[C@@H](Cc1ccc(O)cc1)C(=O)N[C@@H](Cc1ccc(O)cc1)C(=O)N[C@@H](CC(N)=O)C(=O)N[C@@H](Cc1c[nH]c2ccccc12)C(=O)N[C@@H](CC(C)C)C(=O)N[C@H](C(=O)N[C@@H](CCCNC(=N)N)C(=O)N[C@@H](CCC(N)=O)C(=O)N[C@@H](CCCNC(=N)N)C(=O)N[C@@H](Cc1ccc(O)cc1)C(N)=O)[C@@H](C)O)C(C)C)[C@@H](C)O [Compound 147, N{alpha-4}-(3-methylbutanoyl)-N{epsilon-7}-[2-(2-{2-[2-(2-{2-[(4S)-4-carboxy-4-(17-carboxyheptadecanamido)butanamido]ethoxy}ethoxy)acetamido]ethoxy}ethoxy)acetamido]-[4A,7K,9E,17T,18Q,19K,22V,28Y,30W,31L]hPYY (4-36)]

Second part, the compound before the results:

Compound | pKi
CC(C)CC(=O)N[C@@H](C)C(=O)N1CCC[C@H]1C(=O)N[C@@H](CCC(=O)O)C(=O)N[C@@H](CCCCNC(=O)COCCOCCNC(=O)COCCOCCNC(=O)CC[C@H](NC(=O)CCCCCCCCCCCCCCCCC(=O)O)C(=O)O)C(=O)N1CCC[C@H]1C(=O)N1CCC[C@H]1C(=O)N[C@@H](CCC(=O)O)C(=O)N[C@@H](CCC(=O)O)C(=O)N[C@@H](C)C(=O)N[C@@H](CO)C(=O)N1CCC[C@H]1C(=O)N[C@@H](CCC(=O)O)C(=O)N[C@@H](CCC(=O)O)C(=O)N[C@@H](CC(C)C)C(=O)N[C@@H](CCC(N)=O)C(=O)N[C@@H](CCCNC(=N)N)C(=O)N[C@@H](Cc1ccc(O)cc1)C(=O)N[C@@H](Cc1ccc(O)cc1)C(=O)N[C@H](C(=O)N[C@@H](CO)C(=O)N[C@@H](CC(C)C)C(=O)N[C@@H](CCCNC(=N)N)C(=O)N[C@@H](Cc1c[nH]cn1)C(=O)N[C@@H](Cc1ccc(O)cc1)C(=O)N[C@@H](Cc1ccc(O)cc1)C(=O)N[C@@H](CC(N)=O)C(=O)N[C@@H](Cc1c[nH]c2ccccc12)C(=O)N[C@@H](CC(C)C)C(=O)N[C@H](C(=O)N[C@@H](CCCNC(=N)N)C(=O)N[C@@H](CCC(N)=O)C(=O)N[C@@H](CCCNC(=N)N)C(=O)N[C@@H](Cc1ccc(O)cc1)C(N)=O)[C@@H](C)O)C(C)C [Compound 142, N{alpha-4}-(3-methylbutanoyl)-N{epsilon-7}-[2-(2-{2-[2-(2-{2-[(4S)-4-carboxy-4-(17-carboxyheptadecanamido)butanamido]ethoxy}ethoxy)acetamido]ethoxy}ethoxy)acetamido]-[4A,7K,9P,11E,18Q,22V,28Y,30W,31L]hPYY (4-36)] | 8.93
CC(C)CC(=O)N[C@@H](C)C(=O)N1CCC[C@H]1C(=O)N[C@@H](CCC(=O)O)C(=O)N[C@@H](CCCCNC(=O)COCCOCCNC(=O)COCCOCCNC(=O)CC[C@H](NC(=O)CCCCCCCCCCCCCCCCC(=O)O)C(=O)O)C(=O)N[C@@H](C)C(=O)N[C@@H](CCC(=O)O)C(=O)N[C@@H](CCC(=O)O)C(=O)N[C@@H](CC(=O)O)C(=O)N[C@@H](C)C(=O)N[C@@H](CO)C(=O)N1CCC[C@H]1C(=O)N[C@@H](CCC(=O)O)C(=O)N[C@@H](CCC(=O)O)C(=O)N[C@@H](CC(C)C)C(=O)N[C@@H](CCC(N)=O)C(=O)N[C@@H](CCC(N)=O)C(=O)N[C@@H](Cc1ccc(O)cc1)C(=O)N[C@@H](Cc1ccc(O)cc1)C(=O)N[C@H](C(=O)N[C@@H](CO)C(=O)N[C@@H](CC(C)C)C(=O)N[C@@H](CCCNC(=N)N)C(=O)N[C@@H](Cc1c[nH]cn1)C(=O)N[C@@H](Cc1ccc(O)cc1)C(=O)N[C@@H](Cc1ccc(O)cc1)C(=O)N[C@@H](CC(N)=O)C(=O)N[C@@H](Cc1c[nH]c2ccccc12)C(=O)N[C@@H](CC(C)C)C(=O)N[C@H](C(=O)N[C@@H](CCCNC(=N)N)C(=O)N[C@@H](CCC(N)=O)C(=O)N[C@@H](CCCNC(=N)N)C(=O)N[C@@H](Cc1ccc(O)cc1)C(N)=O)[C@@H](C)O)C(C)C [Compound 144, N{alpha-4}-(3-methylbutanoyl)-N{epsilon-7}-[2-(2-{2-[2-(2-{2-[(4S)-4-carboxy-4-(17-carboxyheptadecanamido)butanamido]ethoxy}ethoxy)acetamido]ethoxy}ethoxy)acetamido]-[4A,7K,8A,9E,18Q,19Q,22V,28Y,30W,31L]hPYY (4-36)] (Isovaleryl-APEK([AEEA-AEEA-γGlu-C18 diacid])AEEDASPEELQQYYVSLRHYYNWLTRQRY-NH2) | 8.05
